Assay results reported in ChEMBL document CHEMBL1201862, “PubChem BioAssay data set” (2004).
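Each compound was tested at five concentrations against cells in 96-well plates for 48 hours. Abbreviation: GI50, concentration required for 50% inhibition of growth.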 Active and inactive are the calls of the source. No stated cut-off is given here; in the data, active = GI50 up to about 1.1 µM and inactive = higher. Residues, ends and D or L forms follow the SMILES beside them. *: point of attachment. Boc = CC(C)(C)OC(=O)*

Experiments:
Assay in all cases: NCI anticancer screen, dose series, 48 h
786-0 = tested on: 786-0
EKVX = tested on: EKVX
HL-60 = tested on: HL-60
IGROV-1 = tested on: IGROV-1
MCF7 = tested on: MCF7
MDA-MB-231 = tested on: MDA-MB-231
MDA-N = tested on: MDA-N
MOLT-4 = tested on: MOLT-4
NCI-H460 = tested on: NCI-H460
OVCAR-8 = tested on: OVCAR-8
RXF 393 = tested on: RXF 393
SF-539 = tested on: SF-539
SR = tested on: SR
T47D = tested on: T47D
UACC-257 = tested on: UACC-257
UO-31 = tested on: UO-31
KM12 = tested on: KM12
NCI-H226 = tested on: NCI-H226
SN12C = tested on: SN12C

Row | SMILES | GI50 (786-0) | GI50 (EKVX) | GI50 (HL-60) | GI50 (IGROV-1) | GI50 (MCF7) | GI50 (MDA-MB-231) | GI50 (MDA-N) | GI50 (MOLT-4) | GI50 (NCI-H460) | GI50 (OVCAR-8) | GI50 (RXF 393) | GI50 (SF-539) | GI50 (SR) | GI50 (T47D) | GI50 (UACC-257) | GI50 (UO-31) | GI50 (KM12) | GI50 (NCI-H226) | GI50 (SN12C)
1 | COC(=O)c1c2c(cc3c1CC1(Cc4cc5c(cc4C1)CCC5)C3)CCC2 | > 100 µM (inactive) | > 100 µM (inactive) | > 100 µM (inactive) | > 100 µM (inactive) | > 100 µM (inactive) | > 100 µM (inactive) | > 100 µM (inactive) | > 100 µM (inactive) | > 100 µM (inactive) | > 100 µM (inactive) | > 100 µM (inactive) | > 100 µM (inactive) | > 100 µM (inactive) | > 100 µM (inactive) | > 100 µM (inactive) | > 100 µM (inactive) |  |  | 
2 | Cc1cc(S(=O)(=O)Nc2nc(N)n(-c3cnc4ccccc4n3)n2)c(S)cc1Cl | > 100 µM (inactive) | > 100 µM (inactive) | > 100 µM (inactive) | > 100 µM (inactive) | > 100 µM (inactive) | > 100 µM (inactive) | > 100 µM (inactive) |  | 36.6 µM (inactive) | > 100 µM (inactive) | 99.1 µM (inactive) | > 100 µM (inactive) | > 10 µM (inactive) | > 100 µM (inactive) | > 100 µM (inactive) | > 100 µM (inactive) | 60.4 µM (inactive) | 43.7 µM (inactive) | > 100 µM (inactive)
3 | N/C(=N\OC(=O)NC(Cl)=C(Cl)Cl)c1cc(C(F)(F)F)cc(C(F)(F)F)c1 | 16.2 µM (inactive) | 13.7 µM (inactive) | 12.8 µM (inactive) | 25.8 µM (inactive) | 25.1 µM (inactive) | 15.8 µM (inactive) | 21.5 µM (inactive) | 9.48 µM (inactive) | 18.8 µM (inactive) | 20.1 µM (inactive) |  | 16 µM (inactive) | 10.7 µM (inactive) | 6.21 µM (inactive) | 16.1 µM (inactive) | 18 µM (inactive) | 15.8 µM (inactive) | 22.1 µM (inactive) | 24.3 µM (inactive)
4 | CC(=O)c1c2c(cc3c1CC1(Cc4cc5c(cc4C1)CCCC5)C3)CCCC2 | > 100 µM (inactive) | > 100 µM (inactive) | 7.85 µM (inactive) | 45 µM (inactive) | 19.4 µM (inactive) | > 100 µM (inactive) | 16.4 µM (inactive) | 12.1 µM (inactive) |  | > 100 µM (inactive) | > 100 µM (inactive) | > 100 µM (inactive) | 2.05 µM (inactive) | > 100 µM (inactive) | 13 µM (inactive) | 0.438 µM (active) | > 100 µM (inactive) | 43.5 µM (inactive) | > 100 µM (inactive)
5 | N#Cc1ncn(CCO)c1N | > 100 µM (inactive) | > 100 µM (inactive) | > 100 µM (inactive) | > 100 µM (inactive) | > 100 µM (inactive) | > 100 µM (inactive) | > 100 µM (inactive) | > 100 µM (inactive) | > 100 µM (inactive) | > 100 µM (inactive) |  | > 100 µM (inactive) | > 100 µM (inactive) | > 100 µM (inactive) | > 100 µM (inactive) | > 100 µM (inactive) | > 100 µM (inactive) | > 100 µM (inactive) | > 100 µM (inactive)
6 | O=C(O)C1C2C=CC(C2)C1c1ccccc1 (stereo not drawn) | > 100 µM (inactive) | > 100 µM (inactive) | > 100 µM (inactive) |  | > 100 µM (inactive) | > 100 µM (inactive) | > 100 µM (inactive) | > 100 µM (inactive) | > 100 µM (inactive) | > 100 µM (inactive) | > 100 µM (inactive) | > 100 µM (inactive) | > 100 µM (inactive) | > 100 µM (inactive) | > 100 µM (inactive) | > 100 µM (inactive) | > 100 µM (inactive) | > 100 µM (inactive) | > 100 µM (inactive)
7 | O=C1CCSc2c(cnc3ccccc23)N1 | > 100 µM (inactive) | 32.1 µM (inactive) | > 100 µM (inactive) | > 100 µM (inactive) | 97.1 µM (inactive) | > 100 µM (inactive) | > 100 µM (inactive) | > 100 µM (inactive) | 89.7 µM (inactive) | > 100 µM (inactive) | 34.4 µM (inactive) | 59.3 µM (inactive) | > 100 µM (inactive) | > 100 µM (inactive) | > 100 µM (inactive) | 60.7 µM (inactive) | > 100 µM (inactive) | 34.8 µM (inactive) | > 100 µM (inactive)
8 | NC(C(F)(F)F)(C(F)(F)F)P(=O)(c1ccccc1)c1ccccc1 | > 100 µM (inactive) | > 100 µM (inactive) | > 100 µM (inactive) | > 100 µM (inactive) | > 100 µM (inactive) | > 100 µM (inactive) | > 100 µM (inactive) | > 100 µM (inactive) | > 100 µM (inactive) | > 100 µM (inactive) | > 100 µM (inactive) | > 100 µM (inactive) | > 100 µM (inactive) | > 100 µM (inactive) | > 100 µM (inactive) | > 100 µM (inactive) | > 100 µM (inactive) | > 100 µM (inactive) | > 100 µM (inactive)
9 | CN(C)c1ccc(/C=c2/c3ccccc3n3nc4ccccc4c23)cc1 | 27 µM (inactive) | 44.3 µM (inactive) | 21.2 µM (inactive) | 22.1 µM (inactive) | 13.8 µM (inactive) | 47 µM (inactive) | 3.13 µM (inactive) | 17 µM (inactive) | 30.1 µM (inactive) | 39.8 µM (inactive) | 11.9 µM (inactive) | 24.4 µM (inactive) | 3.34 µM (inactive) | 6.47 µM (inactive) | 56 µM (inactive) | 39.6 µM (inactive) | 30.7 µM (inactive) |  | 73.6 µM (inactive)
10 | Cc1oc2c(cc(O)c3cc(O)ccc32)c2cccc1-2 | > 100 µM (inactive) | > 100 µM (inactive) | > 100 µM (inactive) | > 100 µM (inactive) | 33.4 µM (inactive) | > 100 µM (inactive) | > 100 µM (inactive) | > 100 µM (inactive) | > 100 µM (inactive) | > 100 µM (inactive) | > 100 µM (inactive) | > 100 µM (inactive) | 37 µM (inactive) | 42.1 µM (inactive) | > 100 µM (inactive) | > 100 µM (inactive) | > 100 µM (inactive) |  | > 100 µM (inactive)
11 | N#CC1(c2ccccc2)CCN(C2(c3ccccc3)CCCCC2)CC1 | 94.2 µM (inactive) | > 100 µM (inactive) | > 100 µM (inactive) | > 100 µM (inactive) | > 100 µM (inactive) | > 100 µM (inactive) | > 100 µM (inactive) | > 100 µM (inactive) |  | > 100 µM (inactive) | > 100 µM (inactive) |  | > 100 µM (inactive) | > 100 µM (inactive) | > 100 µM (inactive) | > 100 µM (inactive) | > 100 µM (inactive) | > 100 µM (inactive) | > 100 µM (inactive)
12 | Nc1nc(O)nc2snnc12 | 6.38 µM (inactive) | > 100 µM (inactive) | 2.79 µM (inactive) | > 100 µM (inactive) | > 100 µM (inactive) | 7.13 µM (inactive) | 8.28 µM (inactive) | 7.6 µM (inactive) | > 100 µM (inactive) | 5.71 µM (inactive) | 4.66 µM (inactive) | 15.9 µM (inactive) | 9.46 µM (inactive) | 4.57 µM (inactive) | 24.7 µM (inactive) | 3.99 µM (inactive) | > 100 µM (inactive) | > 36.1 µM (inactive) | > 27.4 µM (inactive)
13 | COc1cc2c(cc1OC)C(=O)/C(=C/c1ccc(Cl)cc1)CC2 | > 10 µM (inactive) | > 10 µM (inactive) | > 10 µM (inactive) | > 10 µM (inactive) | > 10 µM (inactive) | > 10 µM (inactive) | > 10 µM (inactive) | > 10 µM (inactive) | > 10 µM (inactive) | > 10 µM (inactive) | > 10 µM (inactive) | > 10 µM (inactive) | > 10 µM (inactive) | > 10 µM (inactive) | > 10 µM (inactive) | > 10 µM (inactive) | > 10 µM (inactive) | > 10 µM (inactive) | > 10 µM (inactive)
14 | O=C1CC(Nc2ccccc2)c2c(Cl)sc(Cl)c21 (stereo not drawn) | 0.234 µM (active) | 1.76 µM (inactive) | 0.199 µM (active) | 1.61 µM (inactive) | 1.47 µM (inactive) | 1.92 µM (inactive) | 1.65 µM (inactive) | 0.484 µM (active) | 6.37 µM (inactive) | 1.4 µM (inactive) |  | 0.527 µM (active) | 0.52 µM (active) | 1.48 µM (inactive) | 1.85 µM (inactive) | 1.11 µM (active) | 0.483 µM (active) | 8.65 µM (inactive) | 1.51 µM (inactive)
15 | COC(=O)C(Cc1c[nH]c2ccccc12)NC(=O)C(Cc1c[nH]c2ccccc12)NC(=O)C(Cc1c[nH]c2ccccc12)NC(=O)C(Cc1c[nH]c2ccccc12)NC(=O)C(Cc1c[nH]c2ccccc12)NC(=O)C(Cc1c[nH]c2ccccc12)NC(=O)OC(C)(C)C (stereo not drawn) (Boc-WWWWWW-OMe; configuration not given here) | > 100 µM (inactive) |  | > 100 µM (inactive) | 36.9 µM (inactive) | 5.25 µM (inactive) | > 100 µM (inactive) | 41.6 µM (inactive) | 63.4 µM (inactive) | > 100 µM (inactive) | 92.9 µM (inactive) |  |  | 82.4 µM (inactive) | 22.2 µM (inactive) | 30.3 µM (inactive) | 33 µM (inactive) |  | 64 µM (inactive) | 49.9 µM (inactive)
